Source: US6545037B2, “Benzenesulfonamide compounds” (Les Laboratoires Servier, priority 2000, dated 2003)
pIC50: −log10 of the molar value.

Columns and labels:
[1] = system: Platelet-rich plasma (PRP); assay: Platelet aggregation in man induced by the TXA2 agonist U46619; assay type: cell-based; details: human PRP, U46619 1 μM
Experimental: (§1) Platelet aggregation in man
(§2) Venous blood is obtained from human volunteers who have not taken aspirin for at least 14 days prior to the experiment. The blood is removed over sodium citrate (0.109 M) (1 vol. of citrate over 9 vol. of blood). Platelet-rich plasma (PRP) is obtained by centrifugation (20° C.) at 200 g for 10 minutes. The number of platelets is on average 250000 PL/mm^3. The PRP is stored at room temperature until the test and is used within 2 hours of having been taken. The TXA2 agonist U46619 is used at a concentration of 1 μM and 5-hydroxytryptamine is used at a concentration of 10 μM, the latter in the presence of 0.3 μM adenosine diphosphate and 1 μM adrenalin.
(§3) The values indicate that the compounds of the invention are powerful platelet anti-aggregants, which act in a balanced manner on the two activation routes, that of TXA2 and that of serotonin.

[2] = system: Platelet-rich plasma (PRP); assay: Platelet aggregation in man induced by 5-hydroxytryptamine; assay type: cell-based; details: human PRP, 5-hydroxytryptamine 10 μM in the presence of 0.3 μM adenosine diphosphate and 1 μM adrenalin, read-out: IC50, platelet aggregation produced by 5-hydroxytryptamine
Experimental: as §1, §2, §3

## O=C(O)CCc1cc(CCN2CCC(c3nsc4cc(F)ccc34)CC2)cc2c1CCC(NS(=O)(=O)c1ccc(Cl)cc1)C2 (centres unmarked) [Example 4, 3-(6-{[(4-Chlorophenyl)sulphonyl]amino}-3-{2-[4-(6-fluoro-1,2-benzisothiazol-3-yl)-1-piperidinyl]ethyl}-5,6,7,8-tetrahydro-1-naphthyl)propanoic acid]
[1]
  pIC50: 6.77
[2]
  pIC50: 6.64
